This is an account of results in ChEMBL document CHEMBL4616655, “Kalparinol, a Salvialane (Isodaucane) Sesquiterpenoid Derived from Native Australian Dysphania Species That Suggests a Putative Biogenetic Link to Zerumbone” (J Nat Prod, 2020).

The source made the active and inactive calls. No cut-off for these calls is given here.

Data set [1] is described as follows: Stability of compound in DMSO. The class given is physicochemical.
The subject of data set [2] is MM96L. Briefly: Cytotoxicity against human MM96L cells assessed as reduction in cell viability after 6 days by SRB assay. The data set is classed as functional, cell-based. Background: In SRB staining, fixed cells bind dye roughly in proportion to their protein.
Data set [3] deals with NFF. Briefly: Cytotoxicity against human NFF cells assessed as reduction in cell viability after 6 days by SRB assay. The note with it: 144 h. The data set is classed as cell-based.
Data set [4] relates to FaDu. Kind of data set: Cytotoxicity against human FADU cells assessed as reduction in cell viability after 6 days by SRB assay. The class given is functional, cell-based.
Data set [5] deals with SCC-15. Kind of data set: Cytotoxicity against human SCC15 cells assessed as reduction in cell viability after 6 days by SRB assay. The class given is functional, cell-based.
For data set [6], the system named is MCF7. Kind of data set: Cytotoxicity against human MCF7 cells assessed as reduction in cell viability after 6 days by SRB assay. The data set is classed as functional, cell-based.
Data set [7] deals with SCC-25. Briefly: Cytotoxicity against human SCC25 cells assessed as reduction in cell viability after 6 days by SRB assay. The data set is classed as functional, cell-based.
Data set [8] relates to SCC-9. Briefly: Cytotoxicity against human SCC9 cells assessed as reduction in cell viability after 6 days by SRB assay. The data set is classed as functional, cell-based.
The test system of data set [9] is CAL-27. Kind of data set: Cytotoxicity against human CAL27 cells assessed as reduction in cell viability after 6 days by SRB assay. The class given is functional, cell-based.
In data set [10] the test system is Pichia kudriavzevii. Briefly: Antifungal activity against Pichia kudriavzevii ATCC 6258 assessed as reduction in microbial growth up to 200 uM incubated for 24 to 48 hrs. The class given is functional, organism-based.
Data set [11] deals with Candida albicans. Briefly: Antifungal activity against Candida albicans ATCC 90028 assessed as reduction in microbial growth up to 200 uM incubated for 24 to 48 hrs. The class given is functional, organism-based.
Data set [12] has as its system Nakaseomyces glabratus. Kind of data set: Antifungal activity against Candida glabrata ATCC 90030 assessed as reduction in microbial growth up to 200 uM incubated for 24 to 48 hrs. The class given is functional, organism-based.
Data set [13] relates to [Candida] auris. Kind of data set: Antifungal activity against Candida auris CBS 10913 assessed as reduction in microbial growth up to 200 uM incubated for 24 to 48 hrs. The data set is classed as functional, organism-based. The conditions noted are these: Candidozyma auris.
Data set [14] has as its system [Candida] auris. Briefly: Antifungal activity against Candida auris CBS 12373 assessed as reduction in microbial growth up to 200 uM incubated for 24 to 48 hrs. The class given is functional, organism-based. The note with it: Candidozyma auris.

`C[C@@H]1CCC[C@@]2(C)[C@H](C1=O)[C@@H](C(C)(C)O)C[C@@H]2O`: the Stability entry in data set [1] is given as “Unstable”.
As to `C/C1=C\CC[C@@]2(C)O[C@@H]2CC(C)(C)/C=C/C1=O` [ZERUMBONE EPOXIDE], the outcome in [2], in data set [4], in data set [5], in data set [6], in data set [7] and in [8] was inactive. The outcome in data set [9] was inactive. The Activity result in data set [3] is listed as “Non-Toxic”.
Take `C/C1=C/CC[C@@]2(C)O[C@@H]2CC(C)(C)/C=C/C1=O`: the outcome in [10], in data set [11], in [12], in data set [2], in data set [4] and in data set [5] was inactive. The outcome in [6], in data set [7], in data set [13], in data set [14], in [8] and in data set [9] was inactive. For the same compound, the Activity entry in data set [3] is on record as “Non-Toxic”.
